The text below walks through data of PubChem BioAssay (NCI).

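Interpolation was linear, between the two tested concentrations surrounding the appropriate level; five concentrations were tested over 48 hours in 96-well plates. TGI: total growth inhibition.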

What all share (experiment): DTP human tumour cell line panel, 48 h
The test system of test [1] is PC-3 prostate.
The subject of test [2] is DU-145 prostate.
Test [3] has as its system NCI-H23 lung.
Test [4] relates to UACC-257 melanoma.
In test [5] the test system is SW-620 colon.
Test [6] deals with SN12C renal.
Test [7] has as its system NCI-H522 lung.
Test [8] concerns OVCAR-3 ovarian.
Test [9] concerns SK-MEL-5 melanoma.
Test [10] deals with HCT-15 colon.
Test [11] deals with LOX IMVI melanoma.
Test [12] concerns HT29 colon.
Test [13] has as its system SK-MEL-2 melanoma.
Test [14] relates to M14 melanoma.
The subject of test [15] is IGROV1 ovarian.
In test [16] the test system is SF-539 CNS.
Test [17] relates to ACHN renal.
The subject of test [18] is SK-OV-3 ovarian.
Test [19] has as its system HOP-92 NSCLC.
Test [20] concerns HL-60(TB) leukemia.

As usually defined, the TGI is the concentration giving total growth inhibition. Read a high TGI as lower sensitivity of the cells. `COc1cc(OC)c(C2c3cc4c(cc3OC(N3CCCC3)C2C)OCO4)c(OC)c1` (centres undefined): the TGI in test [1] is 49 µM; in test [2], 59.2 µM; in test [3] it was 59.1 µM; in [4], 73 µM; in [5] it was more than 100 µM; in test [6] it was 47.9 µM. For the same compound, the TGI came out at 48.7 µM in test [7]; 20.5 µM in test [8]; 29.4 µM in test [9]; 52.3 µM in test [10]; 28.4 µM in test [11]; 28.7 µM in [12]. For the same compound, the concentration for total growth inhibition (TGI) was 57.7 µM in test [13]; 28.6 µM in test [14]; 52.8 µM in [15]; 25.9 µM in [16]; 30.7 µM in test [17].

Turning to `O=[N+]([O-])/C(C(Cl)=C(Cl)Cl)=C(\N1CCCCC1)n1cncn1`, the TGI in test [1] was determined as 31.7 µM; in test [2], 30.3 µM; in [3], 30.2 µM; in test [4], 36.6 µM; in [5], 36.9 µM; in test [6], 33.4 µM. Moreover, the TGI in [7] worked out at 31.6 µM; in test [8], 32.2 µM; in test [9] it was 25.3 µM; in test [10], 38.1 µM; in test [11], 42.1 µM; in test [12] it was 37.5 µM. Moreover, the TGI in [13] amounted to 43.8 µM; in [14], 33.7 µM; in test [15], 24 µM; in test [16], 31.4 µM; in [17], 32.7 µM; in test [18] it was 37.3 µM.

Turning to `NNC(=O)CSc1nc2ccccc2c(=O)n1N`, the TGI in test [1], in test [2], in test [3], in [4], in [5] and in test [6] was more than 100 µM each time. Moreover, the TGI in test [7], in [8], in [9], in [10], in test [11] and in [12] was more than 100 µM throughout. For the same compound, the TGI was 66.9 µM in test [13]; more than 100 µM in test [14]; more than 100 µM in test [15]; more than 100 µM in test [16]; 57.7 µM in test [19]; 99.1 µM in [17].

Regarding `O=C1c2cccnc2-c2nccc3c2c1nc1cc(Br)ccc13`, the TGI turned out to be 1.12 µM in test [1]; 0.421 µM in test [2]; 0.313 µM in [3]; 0.837 µM in [4]; 0.162 µM in [5]; 0.412 µM in [6]. Besides, the TGI in test [7] came out at 0.29 µM; in test [8], 0.2 µM; in test [9], 0.263 µM; in [10], 0.25 µM; in test [11] it was 0.205 µM; in test [12], 2.45 µM. Further, the TGI is 0.163 µM in [14]; 0.31 µM in [15]; 0.709 µM in test [16]; 2.02 µM in test [19]; 0.609 µM in test [17]; 0.706 µM in test [18].

Turning to `CN1COCc2c1ccc1cc3ccc4c(c3nc21)COCN4S(C)(=O)=O`, the TGI in [1], in test [2], in test [3], in test [4], in test [5] and in [6] was more than 100 µM throughout. For the same compound, the TGI in test [7], in test [8], in [9], in test [10], in test [11] and in [12] was more than 100 µM throughout. Moreover, the TGI in test [14], in [15], in test [19], in [17] and in [18] was more than 100 µM each time.

`On1c(-c2ccccc2)nc2ccccc2c1=S`: the TGI in test [1] is 74.2 µM; in [2], more than 100 µM; in [3] it was more than 100 µM; in test [4], more than 100 µM; in test [5], more than 100 µM; in test [6], more than 100 µM. Further, the TGI in test [20], in test [8], in test [9], in test [10], in test [11] and in test [12] was more than 100 µM throughout. Also, the TGI is 42.8 µM in test [13]; more than 100 µM in [14]; more than 100 µM in test [15]; more than 100 µM in test [16]; more than 100 µM in test [19]; more than 100 µM in test [17]. The TGI in test [18] was more than 100 µM.

In the case of `CCCCN=C(c1ccccc1)N1CCOCC1`, the TGI in [1], in test [2], in [3], in test [4], in [5] and in test [6] was more than 100 µM in each case. In addition, the TGI in test [20], in test [8], in test [9], in test [10], in test [11] and in [12] was more than 100 µM each time. Also, the TGI in [13], in [14], in [15], in [16], in test [17] and in test [18] was more than 100 µM in each case.

For `[N-]=[N+]=NC1=C(c2ccccn2)C(=O)c2cccc3cccc1c23`, the concentration for total growth inhibition (TGI) in test [1] was more than 100 µM; in test [2] it was more than 100 µM; in [3] it was more than 100 µM; in [4], 98.4 µM; in test [5], more than 100 µM; in test [6], more than 100 µM. The TGI in [20] was more than 100 µM; in test [8], more than 100 µM; in test [9] it was 22.1 µM; in test [10] it was more than 100 µM; in [11], more than 100 µM; in test [12], more than 100 µM. Also, the TGI in test [13], in test [14], in test [15], in test [16], in test [19] and in [17] was more than 100 µM each time. For the same compound, the TGI in test [18] was more than 100 µM.
